Test results from ChEMBL document CHEMBL1130682, “A concise synthesis and in vitro cytotoxicity of new labdane diterpenes” (Bioorg Med Chem Lett, 1998).
≈ marks a conversion by molar mass, not a printed value.

Experiments:
Format in all cases: functional, cell-based
[1] = test system: B16; test: In vitro cytotoxicity of compound was measured on murine melanoma (B16) cells.; conditions: Mus musculus
[2] = test system: P388; test: In vitro cytotoxicity of compound was measured on murine lymphocytic leukemia (P-388) cells.; conditions: Mus musculus
[3] = test system: SNU1; test: In vitro cytotoxicity of compound was measured on human gastric adenocarcinoma (SNU-1) cells.

`C=C1CC[C@H]2C(C)(C)CCC[C@]2(C)[C@H]1C/C=C1/CCOC1=O` showed an IC50 [1] of 7.5 µg/mL (≈ 24.8 µM), an IC50 [2] of 6.7 µg/mL (≈ 22.2 µM) and an IC50 [3] of 19.2 µg/mL (≈ 63.5 µM).

`CC(=O)O[C@]1(C)CC[C@H]2C(C)(C)CCC[C@]2(C)[C@H]1CC=O` showed an IC50 [1] of 31.9 µg/mL (≈ 108 µM), an IC50 [2] of 6.9 µg/mL (≈ 23.4 µM) and an IC50 [3] of 4.8 µg/mL (≈ 16.3 µM).

`C=C1[C@H](O)C[C@H]2C(C)(C)CCC[C@]2(C)[C@H]1/C=C/c1ccoc1` gave an IC50 [1] of 27.3 µg/mL (≈ 90.9 µM), an IC50 [2] of 10.3 µg/mL (≈ 34.3 µM) and an IC50 [3] of 4.8 µg/mL (≈ 16 µM).

Compound `C=C1CC[C@H]2C(C)(C)CCC[C@]2(C)[C@H]1/C=C/c1ccoc1` [CORONARIN E] has an IC50 [1] of 18.8 µg/mL (≈ 66.1 µM), an IC50 [2] of 10 µg/mL (≈ 35.2 µM) and an IC50 [3] of 8 µg/mL (≈ 28.1 µM).

`C=C[C@](C)(O)CC[C@@H]1[C@@]2(C)CCCC(C)(C)[C@@H]2CC[C@@]1(C)O` [SCLAREOL] showed an IC50 [1] of 28 µg/mL (≈ 90.8 µM), an IC50 [2] of 10.1 µg/mL (≈ 32.7 µM) and an IC50 [3] of 11.9 µg/mL (≈ 38.6 µM).

`COc1cccc2c1C(=O)c1c(O)c3c(c(O)c1C2=O)C[C@@](O)(C(=O)CO)C[C@@H]3O[C@H]1C[C@H](N)[C@H](O)[C@H](C)O1` [DOXORUBICIN] was tested, and the IC50 [2] was 0.09 µg/mL (≈ 0.166 µM) and the IC50 [3] was 2.15 µg/mL (≈ 3.96 µM).

In the case of `C=C1CC[C@H]2C(C)(C)CCC[C@]2(C)[C@H]1CC(O)c1ccoc1` (some centres not stated), the IC50 [1] is reported as 47.2 µg/mL (≈ 156 µM), the IC50 [2] is reported as 3.6 µg/mL (≈ 11.9 µM) and the IC50 [3] is reported as 3.9 µg/mL (≈ 12.9 µM).

`CO[C@@]12[C@H](COC(N)=O)C3=C(C(=O)C(C)=C(N)C3=O)N1C[C@@H]1N[C@@H]12` [MITOMYCIN] was tested, and the IC50 [2] was 0.06 µg/mL (≈ 0.179 µM) and the IC50 [3] was 2.32 µg/mL (≈ 6.94 µM).

`C=C1CC[C@H]2C(C)(C)CCC[C@]2(C)[C@H]1C/C=C(\CO)CCO` was tested, and the IC50 [1] was 28.9 µg/mL (≈ 94.3 µM), the IC50 [2] was 6.3 µg/mL (≈ 20.6 µM) and the IC50 [3] was 8.6 µg/mL (≈ 28.1 µM).

With `C=C1CC[C@H]2C(C)(C)CCC[C@]2(C)[C@H]1CC=O` the IC50 [1] was 30.8 µg/mL (≈ 131 µM), the IC50 [2] was 0.16 µg/mL (≈ 0.683 µM) and the IC50 [3] was 3.9 µg/mL (≈ 16.6 µM).

In the case of `CC(=O)O[C@]1(C)CC[C@H]2C(C)(C)CCC[C@]2(C)[C@H]1C/C=C1/CCOC1=O`, the IC50 [1] is reported as 11.3 µg/mL (≈ 31.2 µM), the IC50 [2] is reported as 7.8 µg/mL (≈ 21.5 µM) and the IC50 [3] is reported as 12.3 µg/mL (≈ 33.9 µM).

In the case of `CC1(C)CCC[C@@]2(C)[C@H]1CCC1(CO1)[C@@H]2C/C=C1/CCOC1=O` (some centres not stated), the IC50 [1] is reported as 84.5 µg/mL (≈ 265 µM), the IC50 [2] is reported as 12.3 µg/mL (≈ 38.6 µM) and the IC50 [3] is reported as 15.7 µg/mL (≈ 49.3 µM).

`C=C1CC[C@H]2C(C)(C)CCC[C@]2(C)[C@H]1C/C=C(/C=O)CC=O` was tested, and the IC50 [1] was 41.2 µg/mL (≈ 136 µM), the IC50 [2] was 4.1 µg/mL (≈ 13.6 µM) and the IC50 [3] was 12 µg/mL (≈ 39.7 µM).
